In patent US20250368666A1, “INDAZOLE COMPOUNDS” (TYRA BIOSCIENCES, INC., priority 2022, published 2025):

What was measured:
[1] = tested on: RT112/84 cell line (FGFR3-fusion); test: Cancer cell line cell viability assay (Cell Titer-Glo), 72 hr; type: cell-based; conditions: Homo sapiens, RT112/84, RT112/84 cell line (FGFR3-fusion)
How it was run: (§1)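 Intracellular ATP was measured by Cell Titer-Glo 2.0 luminescence after cells were incubated with compound dilutions (top 3 μM, 4-fold, 9 doses). Values were expressed relative to DMSO-treated cells and IC50 was calculated from a variable-slope dose-response curve.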

[2] = tested on: KATO-III cell line (FGFR2 amplification); test: as above; type: cell-based; conditions: Homo sapiens, KATO III
How it was run: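 Following overnight attachment, each line receives compound in triplicate across nine 4-fold dilutions starting at 3 μM, with DMSO backfill for equal solvent. Luminescence after Cell Titer-Glo 2.0 addition gives percent viability versus DMSO control, fitted by 4-parameter logistic for IC50.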

[3] = tested on: KG-1 cell line (FGFR 1-fusion); test: as above; type: cell-based; conditions: Homo sapiens, KG-1, KG-1 cell line (FGFR1-fusion)
How it was run: as §1

FGFR1 = biological target: T1, FGFR1 (Homo sapiens, UniProt P11362); test: Kinase binding assay (kinase-tagged T7 phage, affinity beads, qPCR), Kd; conditions: read-out: FGFR1 (Kd nM)
T1 construct: made in house; host or cells: E. coli (BL21-derived), T7 phage
T1 sequence (P11362 22-822): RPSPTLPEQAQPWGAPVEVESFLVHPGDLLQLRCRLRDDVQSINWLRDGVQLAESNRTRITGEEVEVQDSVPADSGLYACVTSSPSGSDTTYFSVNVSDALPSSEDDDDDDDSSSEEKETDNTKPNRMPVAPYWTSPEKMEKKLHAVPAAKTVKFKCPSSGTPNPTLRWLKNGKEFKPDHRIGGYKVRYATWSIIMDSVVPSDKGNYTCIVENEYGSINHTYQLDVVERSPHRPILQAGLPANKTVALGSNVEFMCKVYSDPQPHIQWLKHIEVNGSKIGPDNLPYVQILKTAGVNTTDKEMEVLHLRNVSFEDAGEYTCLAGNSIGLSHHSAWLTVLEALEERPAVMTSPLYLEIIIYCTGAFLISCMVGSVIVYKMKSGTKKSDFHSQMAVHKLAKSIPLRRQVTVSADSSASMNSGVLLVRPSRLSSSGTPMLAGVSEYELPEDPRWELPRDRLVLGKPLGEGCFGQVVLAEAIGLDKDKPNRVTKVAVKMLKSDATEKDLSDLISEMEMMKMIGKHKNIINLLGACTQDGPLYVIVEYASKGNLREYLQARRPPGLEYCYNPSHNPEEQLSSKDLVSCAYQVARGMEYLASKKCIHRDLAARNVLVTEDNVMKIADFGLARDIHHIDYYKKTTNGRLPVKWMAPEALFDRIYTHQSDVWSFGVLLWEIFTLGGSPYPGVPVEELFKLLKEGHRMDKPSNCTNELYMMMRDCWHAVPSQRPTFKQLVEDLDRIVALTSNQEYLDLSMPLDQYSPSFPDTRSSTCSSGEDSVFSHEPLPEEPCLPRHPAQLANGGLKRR
How it was run: (§2)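 First, phage lysates carrying tagged kinase are made in E. coli at 32° C. Next, they are combined with blocked biotin-ligand streptavidin beads and compound at 0.9% final DMSO. Finally, eluted kinase is measured by qPCR and Kd is fitted with the Hill equation.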

FGFR3 = biological target: T2, FGFR3 (Homo sapiens, UniProt P22607); test: as above; conditions: read-out: FGFR3 (Kd nM)
T2 construct: made in house; host or cells: E. coli (BL21-derived), T7 phage
T2 sequence (P22607 23-806): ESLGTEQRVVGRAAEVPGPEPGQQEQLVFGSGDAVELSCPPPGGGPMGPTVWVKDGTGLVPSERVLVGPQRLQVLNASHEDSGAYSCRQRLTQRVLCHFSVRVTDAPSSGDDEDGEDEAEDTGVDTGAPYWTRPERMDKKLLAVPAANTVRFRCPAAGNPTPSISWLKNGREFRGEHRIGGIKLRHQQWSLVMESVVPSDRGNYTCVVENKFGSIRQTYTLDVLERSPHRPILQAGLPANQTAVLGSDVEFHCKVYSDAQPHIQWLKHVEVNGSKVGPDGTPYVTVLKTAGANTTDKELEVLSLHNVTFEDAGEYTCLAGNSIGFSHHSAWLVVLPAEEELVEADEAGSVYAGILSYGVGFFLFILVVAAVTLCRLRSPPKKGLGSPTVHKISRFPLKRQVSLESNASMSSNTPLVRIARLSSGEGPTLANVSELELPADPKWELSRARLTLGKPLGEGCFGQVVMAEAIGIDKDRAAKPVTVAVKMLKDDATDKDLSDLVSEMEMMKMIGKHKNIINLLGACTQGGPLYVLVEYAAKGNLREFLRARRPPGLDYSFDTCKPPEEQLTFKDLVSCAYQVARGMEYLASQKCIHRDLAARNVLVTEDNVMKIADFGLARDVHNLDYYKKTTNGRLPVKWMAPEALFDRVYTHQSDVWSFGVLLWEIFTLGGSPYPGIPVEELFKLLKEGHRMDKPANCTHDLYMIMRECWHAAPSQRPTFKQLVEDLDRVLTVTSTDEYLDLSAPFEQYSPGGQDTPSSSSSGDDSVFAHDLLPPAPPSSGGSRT
How it was run: as §2

FGFR2 = biological target: T3, FGFR2 (Homo sapiens, UniProt P21802); test: as above; conditions: read-out: FGFR2 (Kd nM)
T3 construct: made in house; host or cells: E. coli (BL21-derived), T7 phage
T3 sequence (P21802 22-821): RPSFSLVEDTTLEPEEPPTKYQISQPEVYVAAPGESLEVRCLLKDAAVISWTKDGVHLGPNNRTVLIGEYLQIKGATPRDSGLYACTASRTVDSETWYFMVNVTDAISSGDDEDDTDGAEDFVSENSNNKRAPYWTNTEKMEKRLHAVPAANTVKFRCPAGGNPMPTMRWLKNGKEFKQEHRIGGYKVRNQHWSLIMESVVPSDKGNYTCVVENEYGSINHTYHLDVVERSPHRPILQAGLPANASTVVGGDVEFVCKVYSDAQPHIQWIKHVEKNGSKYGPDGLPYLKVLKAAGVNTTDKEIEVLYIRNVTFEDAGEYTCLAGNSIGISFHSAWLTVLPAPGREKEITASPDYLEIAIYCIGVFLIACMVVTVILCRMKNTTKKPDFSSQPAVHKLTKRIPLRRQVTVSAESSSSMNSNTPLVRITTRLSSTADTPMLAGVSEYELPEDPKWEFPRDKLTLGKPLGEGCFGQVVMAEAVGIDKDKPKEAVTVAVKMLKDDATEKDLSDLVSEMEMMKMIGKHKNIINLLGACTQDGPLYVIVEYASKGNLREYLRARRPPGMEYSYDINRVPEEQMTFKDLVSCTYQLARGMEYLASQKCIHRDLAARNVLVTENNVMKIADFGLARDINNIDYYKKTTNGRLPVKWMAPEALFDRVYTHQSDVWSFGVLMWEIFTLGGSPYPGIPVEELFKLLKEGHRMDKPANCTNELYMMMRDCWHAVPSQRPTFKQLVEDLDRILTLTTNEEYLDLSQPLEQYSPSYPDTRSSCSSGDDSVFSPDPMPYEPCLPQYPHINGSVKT
How it was run: as §2

FGFR4 = biological target: T4, FGFR4 (Homo sapiens, UniProt P22455); test: as above; conditions: read-out: FGFR4 (Kd nM)
T4 construct: made in house; host or cells: E. coli (BL21-derived), T7 phage
T4 sequence (P22455 22-802): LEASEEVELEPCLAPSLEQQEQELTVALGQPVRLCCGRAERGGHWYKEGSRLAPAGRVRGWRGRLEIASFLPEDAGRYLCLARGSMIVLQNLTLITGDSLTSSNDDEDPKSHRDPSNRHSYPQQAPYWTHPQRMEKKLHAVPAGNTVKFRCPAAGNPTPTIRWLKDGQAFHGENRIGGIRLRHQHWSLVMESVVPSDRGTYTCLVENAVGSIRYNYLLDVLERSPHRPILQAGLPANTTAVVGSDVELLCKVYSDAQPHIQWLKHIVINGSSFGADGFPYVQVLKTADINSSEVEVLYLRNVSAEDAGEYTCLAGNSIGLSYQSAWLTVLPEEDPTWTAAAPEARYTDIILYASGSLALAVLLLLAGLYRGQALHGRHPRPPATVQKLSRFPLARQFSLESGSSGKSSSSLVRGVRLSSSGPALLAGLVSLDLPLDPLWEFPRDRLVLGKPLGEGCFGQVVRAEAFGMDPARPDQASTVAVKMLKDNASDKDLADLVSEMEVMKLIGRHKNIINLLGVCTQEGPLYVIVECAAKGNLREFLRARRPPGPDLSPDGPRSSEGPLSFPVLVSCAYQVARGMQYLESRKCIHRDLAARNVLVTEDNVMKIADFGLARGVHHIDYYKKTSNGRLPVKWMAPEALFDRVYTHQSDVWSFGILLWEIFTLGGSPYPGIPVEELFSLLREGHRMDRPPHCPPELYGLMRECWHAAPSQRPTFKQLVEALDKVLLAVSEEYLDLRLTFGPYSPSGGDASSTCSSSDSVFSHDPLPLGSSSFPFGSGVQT
How it was run: as §2

FGFR3 (V555M) = biological target: T5, FGFR3 (V555M) (Homo sapiens, UniProt P22607, V555M); test: as above; conditions: V555M mutant; read-out: FGFR3 (V555M) (Kd nM)
T5 construct: made in house; host or cells: E. coli (BL21-derived), T7 phage
T5 sequence (P22607 23-806 V555M): as the sequence (P22607 23-806) above, with V533M counted along it
How it was run: as §2

[4] = tested on: HuH7 cell line (FGF19 amplification); test: Cancer cell line cell viability assay (Cell Titer-Glo), 120 hr; type: cell-based; conditions: Homo sapiens, Huh-7
How it was run: as §1

| IC50 [1] [nM] | IC50 [2] [nM] | IC50 [3] [nM] | Kd (FGFR1) [nM] | Kd (FGFR3) [nM] | Kd (FGFR2) [nM] | Kd (FGFR4) [nM] | Kd (FGFR3 (V555M)) [nM] | IC50 [4] [nM] | SMILES |
| --- | --- | --- | --- | --- | --- | --- | --- | --- | --- |
| 50 to 200 | 200 to 1000 | 200 to 1000 | 1 to 50 | 1 to 50 | 50 to 300 | 1 to 50 | 1 to 50 | 0.1 to 50 | C[C@@H](Oc1ccc2[nH]nc(-c3cnc(N4CC(C)(NC(=O)CN(C)C)C4)c(C#N)c3)c2c1)c1c(Cl)cncc1Cl [Example 87, (R)-N-(1-(3-cyano-5-(5-(1-(3,5-dichloropyridin-4-yl)ethoxy)-1H-indazol-3-yl)pyridin-2-yl)-3-methylazetidin-3-yl)-2-(dimethylamino)acetamide] |
| 50 to 200 | 50 to 200 | 200 to 1000 | 1 to 50 | 1 to 50 | 50 to 300 | 1 to 50 | 1 to 50 | 0.1 to 50 | COCCNC1(C)CN(c2ncc(-c3n[nH]c4ccc(O[C@H](C)c5c(Cl)cncc5Cl)cc34)cc2C#N)C1 [Example 88, (R)-5-(5-(1-(3,5-dichloropyridin-4-yl)ethoxy)-1H-indazol-3-yl)-2-(3-((2-methoxyethyl)amino)-3-methylazetidin-1-yl)nicotinonitrile] |
| 50 to 200 | 200 to 1000 | 200 to 1000 | 50 to 300 | 1 to 50 | 50 to 300 | 1 to 50 | 1 to 50 | 50 to 200 | CC(C)OCCNC1(C)CN(c2ncc(-c3n[nH]c4ccc(O[C@H](C)c5c(Cl)cncc5Cl)cc34)cc2C#N)C1 [Example 98, (R)-5-(5-(1-(3,5-dichloropyridin-4-yl)ethoxy)-1H-indazol-3-yl)-2-(3-((2-isopropoxyethyl)amino)-3-methylazetidin-1-yl)nicotinonitrile] |
| 0.1 to 50 | 50 to 200 | 50 to 200 | 1 to 50 | 1 to 50 | 1 to 50 | 1 to 50 | 1 to 50 | 0.1 to 50 | C[C@@H](Oc1ccc2[nH]nc(-c3cnc(N4CC(C)(N5CC(C)(O)C5)C4)c(C#N)c3)c2c1)c1c(Cl)cncc1Cl [Example 100, (R)-5-(5-(1-(3,5-dichloropyridin-4-yl)ethoxy)-1H-indazol-3-yl)-2-(3-hydroxy-3,3′-dimethyl-[1,3′-biazetidin]-1′-yl)nicotinonitrile] |
| 50 to 200 | 200 to 1000 | 200 to 1000 | 1 to 50 | 1 to 50 | 1 to 50 | 1 to 50 | 1 to 50 | 0.1 to 50 | COC1(C)CN(C2(C)CN(c3ncc(-c4n[nH]c5ccc(O[C@H](C)c6c(Cl)cncc6Cl)cc45)cc3C#N)C2)C1 [Example 102, (R)-5-(5-(1-(3,5-dichloropyridin-4-yl)ethoxy)-1H-indazol-3-yl)-2-(3-methoxy-3,3′-dimethyl-[1,3′-biazetidin]-1′-yl)nicotinonitrile] |
| 50 to 200 | 200 to 1000 | 50 to 200 | 1 to 50 | 1 to 50 | 50 to 300 | 1 to 50 | 1 to 50 | 200 to 1000 | CC(C)NCC1(C)CN(c2ncc(-c3n[nH]c4ccc(O[C@H](C)c5c(Cl)cncc5Cl)cc34)cc2C#N)C1 [Example 133, 5-[5-[(1R)-1-(3,5-dichloro-4-pyridyl)ethoxy]-1H-indazol-3-yl]-2-[3-[(isopropylamino)meth-yl]-3-methyl-azetidin-1-yl]pyridine-3-carbonitrile] |

More lines, now with the values behind:

| SMILES | IC50 [1] [nM] | IC50 [2] [nM] | IC50 [3] [nM] | Kd (FGFR1) [nM] | Kd (FGFR3) [nM] | Kd (FGFR2) [nM] | Kd (FGFR4) [nM] | Kd (FGFR3 (V555M)) [nM] | IC50 [4] [nM] |
| --- | --- | --- | --- | --- | --- | --- | --- | --- | --- |
| COc1cc2[nH]nc(-c3cnc(N4CC(C)(NC(C)C)C4)nc3)c2cc1O[C@H](C)c1c(Cl)cncc1Cl [Example 82, (R)-1-(5-(5-(1-(3,5-dichloropyridin-4-yl)ethoxy)-6-methoxy-1H-indazol-3-yl)pyrimidin-2-yl)-N-isopropyl-3-methylazetidin-3-amine] | 0.1 to 50 | 0.1 to 50 | 0.1 to 50 | 1 to 50 | 1 to 50 | 1 to 50 | 1 to 50 | 1 to 50 | 0.1 to 50 |
| COc1cc2[nH]nc(-c3cnc(N4CC(C)(N5CC(C)(O)C5)C4)c(C#N)c3)c2cc1O[C@H](C)c1c(Cl)cncc1Cl [Example 99, (R)-5-(5-(1-(3,5-dichloropyridin-4-yl)ethoxy)-6-methoxy-1H-indazol-3-yl)-2-(3-hydroxy-3,3′-dimethyl-[1,3′-biazetidin]-1′-yl)nicotinonitrile] | 0.1 to 50 | 0.1 to 50 | 0.1 to 50 | 1 to 50 | 1 to 50 | 1 to 50 | 1 to 50 | 1 to 50 | 0.1 to 50 |
| COc1cc2[nH]nc(-c3cnc(N4CC(C)(N5CC(C)(OC)C5)C4)c(C#N)c3)c2cc1O[C@H](C)c1c(Cl)cncc1Cl [Example 101, (R)-5-(5-(1-(3,5-dichloropyridin-4-yl)ethoxy)-6-methoxy-1H-indazol-3-yl)-2-(3-methoxy-3,3′-dimethyl-[1,3′-biazetidin]-1′-yl)nicotinonitrile] | 0.1 to 50 | 0.1 to 50 | 50 to 200 | 1 to 50 | 1 to 50 | 1 to 50 | 1 to 50 | 1 to 50 | 0.1 to 50 |
| COc1cc2[nH]nc(-c3cnc(N4CC(C)(NCC5(O)CC5)C4)c(C#N)c3)c2cc1O[C@H](C)c1c(Cl)cncc1Cl [Example 105] | 0.1 to 50 | 50 to 200 | 50 to 200 | 1 to 50 | 1 to 50 | 1 to 50 | 1 to 50 | 1 to 50 | 0.1 to 50 |
| C[C@@H](Oc1ccc2[nH]nc(-c3cnc(N4CC(C)(CN5CCOCC5)C4)c(C#N)c3)c2c1)c1c(Cl)cncc1Cl [Example 122, (R)-5-(5-(1-(3,5-dichloropyridin-4-yl)ethoxy)-1H-indazol-3-yl)-2-(3-methyl-3-(morpholinomethyl)aze-tidin-1-yl)nicotinonitrile] | 50 to 200 | 200 to 1000 | 200 to 1000 | 50 to 300 | 1 to 50 | 50 to 300 | 1 to 50 | 1 to 50 | 50 to 200 |
| C[C@@H](Oc1ccc2[nH]nc(-c3cnc(N4CC(C)(CN5CCCC5)C4)c(C#N)c3)c2c1)c1c(Cl)cncc1Cl [Example 123, (R)-5-(5-(1-(3,5-dichloropyridin-4-yl)ethoxy)-1H-indazol-3-yl)-2-(3-methyl-3-(pyrrolidin-1-ylmethyl)azetidin-1-yl)nicotinonitrile] | 50 to 200 | 200 to 1000 | 200 to 1000 | 50 to 300 | 1 to 50 | 1 to 50 | 1 to 50 | 1 to 50 | 0.1 to 50 |
| C[C@@H](Oc1cc2c(-c3cnc(N4CC(C)(NCC5CC5)C4)c(C#N)c3)n[nH]c2cc1F)c1c(Cl)cncc1Cl [Example 134, (R)-2-(3-((cyclopropylmethyl)a-mino)-3-methylazetidin-1-yl)-5-(5-(1-(3,5-dichloropyridin-4-yl)ethoxy)-6-fluoro-1H-indazol-3-yl)nicotinonitrile] | 50 to 200 | 200 to 1000 | 200 to 1000 | 50 to 300 | 1 to 50 | 50 to 300 | 1 to 50 | 1 to 50 | 50 to 200 |
